Source: patent US6451781B1, “Substituted acylguanidines, process for their preparation, their use as medicaments or diagnostics, and medicaments comprising them” (Aventis Pharma Deutschland GmbH, priority 1999, dated 2002)

Tests used:
[1] = biological target: T1, human Na+/H+ exchanger (subtype 3; NHE-3) (Homo sapiens, UniProt P48764); experiment: Inhibition of the NHE antiport subtype 3: intracellular pH recovery after acid load (BCECF) in stably transfected LAP1 cells; format: cell-based; settings: human NHE-3, pH recovery in % of maximum recovery, read-out: Residual activity at 30 μM
T1 construct: expressed in transfected cells; host or cells: LAP1 cells (NHE-deficient), stably transfected with pMAMneo plasmid
T1 sequence (P48764 26-834): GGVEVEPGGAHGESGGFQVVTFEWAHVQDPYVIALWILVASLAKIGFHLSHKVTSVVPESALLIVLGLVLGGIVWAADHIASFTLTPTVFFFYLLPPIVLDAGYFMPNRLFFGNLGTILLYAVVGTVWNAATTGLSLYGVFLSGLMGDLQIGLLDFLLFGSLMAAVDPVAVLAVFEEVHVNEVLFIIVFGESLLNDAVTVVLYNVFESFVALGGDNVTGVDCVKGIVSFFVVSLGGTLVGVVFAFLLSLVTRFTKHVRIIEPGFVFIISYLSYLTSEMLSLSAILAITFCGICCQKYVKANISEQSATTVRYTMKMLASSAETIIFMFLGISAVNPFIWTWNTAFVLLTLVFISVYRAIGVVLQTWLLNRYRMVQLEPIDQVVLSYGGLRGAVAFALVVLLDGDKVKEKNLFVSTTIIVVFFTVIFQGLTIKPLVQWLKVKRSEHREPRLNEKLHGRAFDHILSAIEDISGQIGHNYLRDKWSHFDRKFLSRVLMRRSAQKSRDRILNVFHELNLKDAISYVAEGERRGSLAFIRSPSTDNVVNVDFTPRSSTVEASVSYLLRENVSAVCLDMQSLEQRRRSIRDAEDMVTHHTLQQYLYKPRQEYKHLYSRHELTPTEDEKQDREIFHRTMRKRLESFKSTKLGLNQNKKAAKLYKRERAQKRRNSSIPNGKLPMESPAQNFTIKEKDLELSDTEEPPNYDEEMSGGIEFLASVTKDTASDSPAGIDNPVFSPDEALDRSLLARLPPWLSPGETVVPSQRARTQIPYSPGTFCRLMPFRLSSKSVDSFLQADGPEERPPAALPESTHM
Method: The absorption of water from the gall bladder is inhibited by inhibition of the apical NHE antiport of the subtype 3 of the gall bladder epithelium, which results in a dilute bile fluid. This dilute bile fluid prevents gallstone formation and, if gallstones are already present, brings about their dissolution. The inhibition of the NHE antiport of the subtype 3 by the compounds of the formula I according to the invention was determined by means of the following test.
Most of the molecular bilology techniques follow protocols from the works “Current Protocols in Molecular Biology (eds. Ausubel, F. M., Brent, R., Kingston, R. E., Moore, D. D., Seidman, J. G., Smith, J. A. and Struhl, K.; John Wiley & Sons)” and “Molecular Cloning: A Laboratory Manual (Sambrock, J., Fritsch, E. F. und Maniatis, T.; Cold Spring Harbor Laboratory Press (1989))”. […] In this test, the increase in the intracellular pH (pHi) after an acidification was determined which commenced with functional NHE even under bicarbonate-free conditions. For this, the pHi was determined using the pH-sensitive fluorescent dye BCECF (Calbiochem, the precursor BCECF-AM is employed). […] The BCECF fluorescence was determined in a “ratio fluorescence spectrometer” (Photon Technology International, South Brunswick, N.J., USA) at excitation wavelengths of 505 and 440 nm and an emission wavelength of 535 nm and converted into the pHi by means of calibration curves. […]

Row | Compound | remaining activity at 30 µM [1] [%] | melting point
1 | C/C(=C\c1cc(F)c(Oc2ccc(CC(=O)NCCO[C@H]3CC[C@@]4(C)[C@@H](C3)C[C@@H](O)[C@@H]3[C@@H]4C[C@H](O)[C@]4(C)[C@@H]([C@H](C)CCC(=O)O)CC[C@@H]34)cc2)c(F)c1)C(=O)N=C(N)N (stereo in doubt) [Example 1, 4-{3-[2-(2-{4-[2,6-Difluoro-4-(3-guanidino-2-methyl-3-oxopropenyl)phenoxy]phenyl}acetylamino)ethoxy]-7,12-dihydroxy-10,13-dimethylhexadecahydro-cyclopenta[a]phenanthren-17-yl}pentanoic acid] | 17 | –
2 | C/C(=C\C(=O)N=C(N)N)c1cc(F)c(Oc2ccc(CC(=O)N[C@H]3CC[C@@]4(C)[C@@H](C3)C[C@@H](O)[C@@H]3[C@@H]4C[C@H](O)[C@]4(C)[C@@H]([C@H](C)CCC(=O)O)CC[C@@H]34)cc2)c(F)c1 (stereo in doubt) [Example 2, 4-[3-(2-{4-[2,6-Difluoro-4-(3-guanidino-1-methyl-3-oxopropenyl)phenoxy]phenyl}acetylamino)-7,12-dihydroxy-10,13-dimethylhexadecahydrocyclopenta[a]phenanthren-17-yl]pentanoic acid] | 10 | 190 °C (dec.)
3 | C[C@H](CCC(=O)O)[C@H]1CC[C@H]2[C@@H]3[C@H](O)C[C@@H]4C[C@@H](OCCNC(=O)c5cccc(-c6ccc(C(=O)N=C(N)N)cc6)c5)CC[C@]4(C)[C@H]3C[C@H](O)[C@]12C (stereo in doubt) [Example 3, 4-(3-{2-[(4′-Guanidinocarbonylbiphenyl-3-carbonyl)amino]ethoxy}-7,12-dihydroxy-10,13-dimethylhexadecahydrocyclopenta[a]phenanthren-17-yl)pentanoic acid] | 65 | –
